In brackets after ≈: the same amount, converted by molar mass. Activity calls are given as the source filed them. The rule behind the calls is not given here.

The subject of one test is A2780. In words: Induction of apoptosis in human A2780 cells assessed as increase in late apoptotic cells measured after 48 hrs by Annexin V-FITC/PI staining based FACS analysis. Format: functional, cell-based. The following applies: dose 1-9 µM. Background: A flow cytometer gives signals particle by particle.
Turning to `CC1=C[C@@H]2/C=C(\C)CC[C@@H](O)C(=O)C[C@@H](S[C@H]3CCC[C@H](C)OC(=O)Cc4cc(O)cc(O)c4C(=O)C3)C(=O)[C@]23C(=O)N[C@@H](CC(C)C)[C@@H]3[C@@H]1C`, the Activity entry was “Dose-Dependent Effect”.

The test system of another test is A2780. In words: Induction of apoptosis in human A2780 cells assessed as chromatin fragmentation at 1 to 9 uM measured after 48 hrs by Hoechst 33258 staining based assay. The following applies: dose 1-9 µM. In kind it is functional, cell-based.
Take `CC1=C[C@@H]2/C=C(\C)CC[C@@H](O)C(=O)C[C@@H](S[C@H]3CCC[C@H](C)OC(=O)Cc4cc(O)cc(O)c4C(=O)C3)C(=O)[C@]23C(=O)N[C@@H](CC(C)C)[C@@H]3[C@@H]1C`: the result was Active.

A further test relates to Shigella dysenteriae. In words: Antibacterial activity against Shigella dysenteriae measured after 20 to 45 mins by broth microdilution method. In kind it is functional. To be noted: time 20-45 min. On the technique in general: Broth dilution looks for growth in wells or tubes with falling amounts of substance.
In general, MIC refers to the lowest concentration that inhibits growth of the organism. The low end stands for a more susceptible organism, the high end for a less susceptible organism. `CC1=C[C@@H]2/C=C(\C)CC[C@@H](O)C(=O)C[C@@H](S[C@H]3CCC[C@H](C)OC(=O)Cc4cc(O)cc(O)c4C(=O)C3)C(=O)[C@]23C(=O)N[C@@H](CC(C)C)[C@@H]3[C@@H]1C` yielded an MIC of 13 µg/mL (≈ 18 µM).

The subject of a further test is A2780. In words: Induction of apoptosis in human A2780 cells assessed as late apoptotic cells at 1 uM measured after 48 hrs by Annexin V-FITC/PI staining based FACS analysis (reference value: 2.32 to 2.4%).
Conditions: not given
Format: functional.
As for `CC1=C[C@@H]2/C=C(\C)CC[C@@H](O)C(=O)C[C@@H](S[C@H]3CCC[C@H](C)OC(=O)Cc4cc(O)cc(O)c4C(=O)C3)C(=O)[C@]23C(=O)N[C@@H](CC(C)C)[C@@H]3[C@@H]1C`, the Activity was determined as 3.56%.

Another test concerns A2780. In words: Induction of apoptosis in human A2780 cells assessed as late apoptotic cells at 3 uM measured after 48 hrs by Annexin V-FITC/PI staining based FACS analysis (reference value: 2.32 to 2.4%). Format: functional.
Conditions: not given
On to `CC1=C[C@@H]2/C=C(\C)CC[C@@H](O)C(=O)C[C@@H](S[C@H]3CCC[C@H](C)OC(=O)Cc4cc(O)cc(O)c4C(=O)C3)C(=O)[C@]23C(=O)N[C@@H](CC(C)C)[C@@H]3[C@@H]1C`, for which the Activity is given as 5.46%.

The test system of another test is Vibrio parahaemolyticus. In words: Antibacterial activity against Vibrio parahaemolyticus at 25 ug/ml measured after 20 to 45 mins by broth microdilution method. Format: functional, organism-based. To be noted: dose 25.0 µg/ml, time 20-45 min.
Regarding `CC1=C[C@@H]2/C=C(\C)CC[C@@H](O)C(=O)C[C@@H](S[C@H]3CCC[C@H](C)OC(=O)Cc4cc(O)cc(O)c4C(=O)C3)C(=O)[C@]23C(=O)N[C@@H](CC(C)C)[C@@H]3[C@@H]1C`, the result was inactive.

A further test concerns Bacillus subtilis. In words: Antibacterial activity against Bacillus subtilis measured after 20 to 45 mins by broth microdilution method. In kind it is functional. To be noted: time 20-45 min.
`CC1=C[C@@H]2/C=C(\C)CC[C@@H](O)C(=O)C[C@@H](S[C@H]3CCC[C@H](C)OC(=O)Cc4cc(O)cc(O)c4C(=O)C3)C(=O)[C@]23C(=O)N[C@@H](CC(C)C)[C@@H]3[C@@H]1C` displayed an MIC of 6.3 µg/mL (≈ 8.7 µM).

The subject of the next test is A2780. In words: Induction of apoptosis in human A2780 cells assessed as necrotic cells at 9 uM measured after 48 hrs by Annexin V-FITC/PI staining based FACS analysis (reference value: 1.34 to 3.3%).
Conditions: not given
Format: functional.
Turning to `CC1=C[C@@H]2/C=C(\C)CC[C@@H](O)C(=O)C[C@@H](S[C@H]3CCC[C@H](C)OC(=O)Cc4cc(O)cc(O)c4C(=O)C3)C(=O)[C@]23C(=O)N[C@@H](CC(C)C)[C@@H]3[C@@H]1C`, the Activity was determined as 1.87%.

The next test relates to A2780. In words: Induction of apoptosis in human A2780 cells assessed as necrotic cells at 1 uM measured after 48 hrs by Annexin V-FITC/PI staining based FACS analysis (reference value: 1.34 to 3.3%). In kind it is functional.
Conditions: not given
As for `CC1=C[C@@H]2/C=C(\C)CC[C@@H](O)C(=O)C[C@@H](S[C@H]3CCC[C@H](C)OC(=O)Cc4cc(O)cc(O)c4C(=O)C3)C(=O)[C@]23C(=O)N[C@@H](CC(C)C)[C@@H]3[C@@H]1C`, the Activity was found to be 4.07%.

For a further test, the system named is A2780. In words: Induction of apoptosis in human A2780 cells assessed as early apoptotic cells at 9 uM measured after 48 hrs by Annexin V-FITC/PI staining based FACS analysis (reference value: 1.68 to 1.9%). In kind it is functional.
Conditions: not given
Regarding `CC1=C[C@@H]2/C=C(\C)CC[C@@H](O)C(=O)C[C@@H](S[C@H]3CCC[C@H](C)OC(=O)Cc4cc(O)cc(O)c4C(=O)C3)C(=O)[C@]23C(=O)N[C@@H](CC(C)C)[C@@H]3[C@@H]1C`, the Activity is on record as 53.2%.

In the next test the test system is A2780. In words: Induction of apoptosis in human A2780 cells assessed as viable cells at 1 uM measured after 48 hrs by Annexin V-FITC/PI staining based FACS analysis (reference value: 92.6 to 92.8%). In kind it is functional. The following applies: read-out: Activity.
`CC1=C[C@@H]2/C=C(\C)CC[C@@H](O)C(=O)C[C@@H](S[C@H]3CCC[C@H](C)OC(=O)Cc4cc(O)cc(O)c4C(=O)C3)C(=O)[C@]23C(=O)N[C@@H](CC(C)C)[C@@H]3[C@@H]1C`: the viability at 1 µM was 91%.

The subject of another test is A2780. In words: Induction of apoptosis in human A2780 cells assessed as early apoptotic cells at 3 uM measured after 48 hrs by Annexin V-FITC/PI staining based FACS analysis (reference value: 1.68 to 1.9%).
Conditions: not given
Format: functional.
`CC1=C[C@@H]2/C=C(\C)CC[C@@H](O)C(=O)C[C@@H](S[C@H]3CCC[C@H](C)OC(=O)Cc4cc(O)cc(O)c4C(=O)C3)C(=O)[C@]23C(=O)N[C@@H](CC(C)C)[C@@H]3[C@@H]1C`: the Activity amounted to 5.4%.

The test system of the next test is A2780. In words: Induction of apoptosis in human A2780 cells assessed as necrotic cells at 3 uM measured after 48 hrs by Annexin V-FITC/PI staining based FACS analysis (reference value: 1.34 to 3.3%). Format: functional.
Conditions: not given
As for `CC1=C[C@@H]2/C=C(\C)CC[C@@H](O)C(=O)C[C@@H](S[C@H]3CCC[C@H](C)OC(=O)Cc4cc(O)cc(O)c4C(=O)C3)C(=O)[C@]23C(=O)N[C@@H](CC(C)C)[C@@H]3[C@@H]1C`, the Activity is 2.16%.
